Patent US20220323383A1, “SMALL-MOLECULAR ADJUVANTS AND IMPLEMENTATIONS THEREOF” (JAWAHARLAL NEHRU CENTRE FOR ADVANCED SCIENTIFIC RESEARCH, priority 2019, published 2022)

Tests used:
Format in all cases: cell-based
[1] = test system: A. baumannii R674; experiment: Chequerboard combination efficacy of adjuvant with antibiotics
Method: (§1) All the solvents were of reagent grade, which were distilled and dried before its use. All the reagents were purchased from Sigma-Aldrich, Alfa-Aesar, S.D. Fine, Avra and Spectrochem, and were used without further purification. Analytical thin layer chromatography (TLC) was performed on E. Merck TLC plates pre-coated with silica gel 60 F254 and visualization was carried out using UV light and Iodine. Column chromatography was performed on silica gel (60-120 mesh) using different ratio of chloroform and methanol solvent system. Nuclear magnetic resonance spectra were recorded on Bruker (AV-400) 400 MHz spectrometer in deuterated solvents. Mass spectra were obtained using 6538-UHD Accurate mass Q-TOF LC-MS instrument. For optical density measurement during bacteriology experiments, Tecan Infinite Pro series M200 Microplate Reader was used. Bacterial strains, A. baumannii (R674), P. aeruginosa (R590), E. coli (R3336) and K. pneumoniae (R3934) were used for the studies.
(§2) The combination efficacy with antibiotics from different classes and individual antibacterial activity of the synthesized adjuvants was evaluated against the above mentioned MDR and NDM-1 strains of Gram-negative bacteria. All the bacteria were grown in peptone. The bacterial samples were freeze dried and stored at −80° C. 3 μl of these stocks were added to 3 mL of peptone and the culture was grown for 6 h at 37° C. prior to the experiments.
(§3) All synthesized compounds were assayed for their antibacterial activity in combination with antibiotics in a modified chequerboard micro-dilution broth format. Stock solutions were made by serially diluting the compounds using autoclaved millipore water. The bacterial freeze dried stock samples were stored at −80° C. About 3 μL of these stocks were added to about 3 mL of the respective broth and the culture was grown for about 6 h at about 37° C. with prior to the experiments. This 6 h grown culture gives about 10^8 cfu/mL in case of A. baumannii R674, P. aeruginosa R590, E. coli R3336 and K. pneumoniae R3934 which were determined by spread plating method. This 6 h grown culture was diluted to give effective cell concentration of 10^5 cfu/mL, and then used for the chequerboard assay. Adjuvants and antibiotics were serially diluted in two-fold, in sterile millipore water. 25 μL of these serial dilutions of the antibiotics and 25 μL of compounds were added to the wells of 96 well plate followed by the addition of about 150 μL of bacterial solution (˜10^5 cfu/mL). The plates were then incubated at about 37° C., 150 rpm in the incubator and O.D at 600 nm was recorded at 24 h using TECAN (Infinite series, M200 pro) Plate Reader. The wells with similar OD as the media control contained the required concentration of the antibiotic and adjuvant for antibacterial efficacy. The potentiation ability of the adjuvants was determined by calculating the potentiation factor and the Fractional Inhibitory concentration (FIC) index. Fractional Inhibitory Concentration (FIC) is expressed as, FIC=[X]/MICX, where [X] is the lowest inhibitory concentration of antibiotic in the presence of the adjuvant. Whereas FIC index is expressed as, FICI=FICantibiotic+FICadjuvant. The values of FIC index give an insight about the nature of the combination. Potentiation factor which means fold-reduction in the MIC of the antibiotic, when used in combination with the adjuvant was also determined. Potentiation factor=[Minimum inhibitory concentration (MIC) of antibiotic in absence of adjuvant]/[MIC of antibiotic in presence of adjuvant]. […] The combination efficacies of adjuvants with various antibiotics are furnished in Table 1. It should be noted that various other resistant strains of bacteria (Gram-positive and Gram-negative) can be tested with a number of other antibiotics to check the potentiation capacity of the adjuvants.

[2] = test system: P. aeruginosa R590; experiment: as above; settings: P. aeruginosa R590
Method: as §1, §2, §3

[3] = test system: A. baumannii R674; experiment: Individual antibacterial activity (MIC) of adjuvants; settings: adjuvant alone; A. baumannii R674
Method: as §2, §3

[4] = test system: P. aeruginosa R590; experiment: as above; settings: adjuvant alone; P. aeruginosa R590
Method: as §2, §3

[5] = test system: human RBCs; experiment: Haemolytic activity; settings: concentration at which 50% of human blood cells are lysed; 1 h at 37° C.
Method: Erythrocytes were isolated from freshly drawn, heparanized human blood and re-suspended to 5 vol % in PBS (pH 7.4). In a 96-well microtiter plate, 150 μl of erythrocyte suspension was added to 50 μl of serially diluted compound. Two controls were made, one without compound and other with 50 μl of 1 vol % solution of Triton X-100. The plate was incubated for 1 h at 37° C. The plate was then centrifuged at 3,500 rpm for 5 min, 100 μl of the supernatant from each well was transferred to a fresh 96-well microtiter plate, and A540 was measured. Percentage of hemolysis was determined as (A−A0)/(Atotal−A0)×100, where A is the absorbance of the test well, A0 the absorbance of the negative controls (without compound), and Atotal the absorbance of 100% hemolysis wells (with Triton X-100), all at 540 nm.
Toxicity studies of the compounds were done on freshly drawn human RBCs. Toxicity of the compounds were defined by their HC50 values (Table 2), i.e. the concentration of compound at which 50% of the blood cells are lysed.

Row | Compound | FICI ([1]; antibiotic Rifampicin) | MIC of antibiotic in presence of adjuvant ([1]; antibiotic Rifampicin) [µg/mL] | Potentiation factor ([1]; antibiotic Rifampicin) | FICI ([1]; antibiotic Tetracycline) | MIC of antibiotic in presence of adjuvant ([1]; antibiotic Tetracycline) [µg/mL] | Potentiation factor ([1]; antibiotic Tetracycline) | FICI ([2]; antibiotic Rifampicin) | MIC of antibiotic in presence of adjuvant ([2]; antibiotic Rifampicin) [µg/mL] | Potentiation factor ([2]; antibiotic Rifampicin) | FICI ([2]; antibiotic Tetracycline) | MIC of antibiotic in presence of adjuvant ([2]; antibiotic Tetracycline) [µg/mL] | Potentiation factor ([2]; antibiotic Tetracycline) | MIC against clinical isolates of bacteria [3] [µg/mL] | MIC against clinical isolates of bacteria [4] [µg/mL] | HC50 [5] [µg/mL]
1 | NCCCCCCN(CCCCCCN)C(=O)Cc1cccc2ccccc12 [Compound 10, N,N-bis-[(6-amino)hexyl] naphthyl ethanamide bistrifluoroacetate] | <0.14 | 1 | 64 | <0.375 | 16 | 8 | <0.133 | 1 | 128 | <0.375 | 32 | 8 | >512 | >512 | >1024
2 | NCCCCCCN(CCCCCCN)C(=O)CC(c1ccccc1)c1ccccc1.O=C(O)C(F)(F)F.O=C(O)C(F)(F)F [Compound 11, N,N-bis-[(6-amino)hexyl] 3,3-diphenyl propanamide bistrifluoroacetate] | 0.1328 | 0.5 | 128 | 1 | 64 | 2 | 0.07 | 1 |  | 0.375 | 32 | 8 | 128 | 256 | >1024
